Source: publication PMC9814781, “Structure-based design of a dual-warhead covalent inhibitor of FGFR4” (Communications Chemistry, 2022)

Tests used:
TIE2 = TIE2 (Homo sapiens, UniProt Q02763); assay: Kinase selectivity profiling
Erk2 = Erk2 (Homo sapiens, UniProt P28482); assay: Kinase selectivity profiling
FYNa = FYNa (Homo sapiens, UniProt P06241); assay: Kinase selectivity profiling
HIPK1 = HIPK1 (Homo sapiens, UniProt Q86Z02); assay: Kinase selectivity profiling
AurB = AurB (Homo sapiens, UniProt Q96GD4); assay: Kinase selectivity profiling
ZAP70 = ZAP70 (Homo sapiens, UniProt P43403); assay: Kinase selectivity profiling
Huh7 = Huh7 viability assay; format: cell-based; conditions: Homo sapiens, Huh-7; Huh7, FGF19-overexpressing HCC cell line, 72 h, CCK-8
Method: Hep3B (ThermoFisher Scientific, 11965, America) and Huh7 (ThermoFisher Scientific, 11095, America) cells were seeded into 96-well plates at 4000 cells/well and 2000 cells/well, respectively. […] Cell viabilities were measured by a CCK-8 kit (Vazyme, China). The IC50 values were calculated using GraphPad Prism software.

FGFR1 = FGFR1 (Homo sapiens, UniProt P11362); assay: Kinase inhibition assay (ADP-Glo); format: biochemical; parameters: human FGFR1 (residues 456–765); 6xHis + PreScission site (N, cleaved yes); made in house; host or cells: Escherichia coli Rosseta
Method: Wild-type FGFRs and mutant FGFRs were prepared as previously described[25]–[27]. In brief, the kinase domains of human FGFR1 (residues 456–765), FGFR2 (residues 453–770), FGFR3 (residues 450–758), and FGFR4 (residues 445–753) were cloned into a modified pET28a expression vector and then transfected into Escherichia coli Rosseta cells. The N-terminal of the recombinant proteins were contained a 6xHis tag followed by a PreScission cleavage site for FGFR1, FGFR2, FGFR3, and FGFR4. Site-directed mutagenesis of FGFR4 was generated according to the ClonExpress II One Step Cloning Kit (Vazyme) using the pET28a-FGFR4 plasmid as the template. These mutants were confirmed by DNA sequencing (Tsingke, Changsha, China). For crystallization experiments, the wild-type FGFR4 plasmid was co-expressed with untagged YOPH to obtain non-phosphorylated proteins. The proteins were first purified by Ni-NTA affinity chromatography. […]
All kinase inhibition assays were performed with optimized kinase assay buffer consisting of 40 mM Tris-HCl pH 7.5, 20 mM MgCl2, 20 mM NaCl, 0.1 mg/mL BSA, 1 mM TCEP, and 4% DMSO. […] Fluorescence was measured on a multimode plate reader (Perkin-Elmer) using a chemiluminescence program after the addition of the detection reagent. IC50 values were determined using a three-parameter log [Inhibitor] versus response model in GraphPad Prism software.

GLK = GLK (Homo sapiens, UniProt Q8IVH8); assay: Kinase selectivity profiling
MER = MER (Homo sapiens, UniProt Q12866); assay: Kinase selectivity profiling
EPHB4 = EPHB4 (Homo sapiens, UniProt P54760); assay: Kinase selectivity profiling
TRKB = TRKB (Homo sapiens, UniProt Q16620); assay: Kinase selectivity profiling
MET = MET (Homo sapiens, UniProt P08581); assay: Kinase selectivity profiling
DDR1 = DDR1 (Homo sapiens, UniProt Q08345); assay: Kinase selectivity profiling
HIPK2 = HIPK2 (Homo sapiens, UniProt Q9H2X6); assay: Kinase selectivity profiling
Erk5 = Erk5 (Homo sapiens, UniProt Q13164); assay: Kinase selectivity profiling
HER2 = HER2 (Homo sapiens, UniProt P04626); assay: Kinase selectivity profiling
HPK1 = HPK1 (Homo sapiens, UniProt Q92918); assay: Kinase selectivity profiling
RET = RET (Homo sapiens, UniProt P07949); assay: Kinase selectivity profiling
CDK9/CycK = CDK9/CycK (Homo sapiens, UniProt P50750); assay: Kinase selectivity profiling
ROCK1 = ROCK1 (Homo sapiens, UniProt Q13464); assay: Kinase selectivity profiling
CK1ε = CK1ε (Homo sapiens, UniProt P49674); assay: Kinase selectivity profiling
AurC = AurC (Homo sapiens, UniProt Q9UQB9); assay: Kinase selectivity profiling
RSK3 = RSK3 (Homo sapiens, UniProt Q15349); assay: Kinase selectivity profiling
EPHB1 = EPHB1 (Homo sapiens, UniProt P54762); assay: Kinase selectivity profiling

CK1ε, sequence (P49674 whole entry): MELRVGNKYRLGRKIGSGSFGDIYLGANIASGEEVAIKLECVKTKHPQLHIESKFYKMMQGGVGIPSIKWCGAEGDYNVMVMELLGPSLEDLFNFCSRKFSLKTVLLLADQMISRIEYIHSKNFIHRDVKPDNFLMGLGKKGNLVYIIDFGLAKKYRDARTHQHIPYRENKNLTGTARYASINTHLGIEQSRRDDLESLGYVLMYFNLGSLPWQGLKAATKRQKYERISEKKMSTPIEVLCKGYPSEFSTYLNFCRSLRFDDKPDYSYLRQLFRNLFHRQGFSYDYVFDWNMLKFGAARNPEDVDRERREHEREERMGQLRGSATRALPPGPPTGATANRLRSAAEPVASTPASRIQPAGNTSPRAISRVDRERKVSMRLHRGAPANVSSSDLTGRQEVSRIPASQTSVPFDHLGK
TRKB, sequence (Q16620 32-822): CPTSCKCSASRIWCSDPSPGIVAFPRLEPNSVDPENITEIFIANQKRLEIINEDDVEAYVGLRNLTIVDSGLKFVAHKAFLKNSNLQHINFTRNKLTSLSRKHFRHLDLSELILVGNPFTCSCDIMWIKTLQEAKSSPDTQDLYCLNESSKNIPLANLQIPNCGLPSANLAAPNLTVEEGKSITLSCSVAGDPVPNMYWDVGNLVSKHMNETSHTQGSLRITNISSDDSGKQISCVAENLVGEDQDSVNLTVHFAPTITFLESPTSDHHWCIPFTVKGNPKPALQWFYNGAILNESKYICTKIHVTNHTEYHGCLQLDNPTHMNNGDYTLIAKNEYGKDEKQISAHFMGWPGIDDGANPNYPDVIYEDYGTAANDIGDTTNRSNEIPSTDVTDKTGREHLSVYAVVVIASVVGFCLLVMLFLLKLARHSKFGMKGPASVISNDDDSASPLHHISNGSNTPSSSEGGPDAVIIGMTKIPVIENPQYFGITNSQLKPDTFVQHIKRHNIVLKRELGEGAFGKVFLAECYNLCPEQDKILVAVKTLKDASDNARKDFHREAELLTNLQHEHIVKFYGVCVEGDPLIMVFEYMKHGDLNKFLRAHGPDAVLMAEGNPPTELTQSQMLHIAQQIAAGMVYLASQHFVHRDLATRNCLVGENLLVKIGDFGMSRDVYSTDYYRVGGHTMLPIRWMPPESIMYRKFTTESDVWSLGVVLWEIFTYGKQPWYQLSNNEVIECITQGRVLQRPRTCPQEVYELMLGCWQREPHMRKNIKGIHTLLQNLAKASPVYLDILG
FGFR1, sequence (P11362 456-765): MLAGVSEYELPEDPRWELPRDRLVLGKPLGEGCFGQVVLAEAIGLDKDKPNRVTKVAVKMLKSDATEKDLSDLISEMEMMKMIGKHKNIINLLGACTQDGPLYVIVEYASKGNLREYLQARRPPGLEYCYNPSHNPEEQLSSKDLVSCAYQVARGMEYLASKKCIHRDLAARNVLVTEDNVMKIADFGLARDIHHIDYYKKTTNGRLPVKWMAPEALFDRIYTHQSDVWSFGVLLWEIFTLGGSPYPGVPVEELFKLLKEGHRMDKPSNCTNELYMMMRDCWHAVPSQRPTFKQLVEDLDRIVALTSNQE
ROCK1, sequence (Q13464 whole entry): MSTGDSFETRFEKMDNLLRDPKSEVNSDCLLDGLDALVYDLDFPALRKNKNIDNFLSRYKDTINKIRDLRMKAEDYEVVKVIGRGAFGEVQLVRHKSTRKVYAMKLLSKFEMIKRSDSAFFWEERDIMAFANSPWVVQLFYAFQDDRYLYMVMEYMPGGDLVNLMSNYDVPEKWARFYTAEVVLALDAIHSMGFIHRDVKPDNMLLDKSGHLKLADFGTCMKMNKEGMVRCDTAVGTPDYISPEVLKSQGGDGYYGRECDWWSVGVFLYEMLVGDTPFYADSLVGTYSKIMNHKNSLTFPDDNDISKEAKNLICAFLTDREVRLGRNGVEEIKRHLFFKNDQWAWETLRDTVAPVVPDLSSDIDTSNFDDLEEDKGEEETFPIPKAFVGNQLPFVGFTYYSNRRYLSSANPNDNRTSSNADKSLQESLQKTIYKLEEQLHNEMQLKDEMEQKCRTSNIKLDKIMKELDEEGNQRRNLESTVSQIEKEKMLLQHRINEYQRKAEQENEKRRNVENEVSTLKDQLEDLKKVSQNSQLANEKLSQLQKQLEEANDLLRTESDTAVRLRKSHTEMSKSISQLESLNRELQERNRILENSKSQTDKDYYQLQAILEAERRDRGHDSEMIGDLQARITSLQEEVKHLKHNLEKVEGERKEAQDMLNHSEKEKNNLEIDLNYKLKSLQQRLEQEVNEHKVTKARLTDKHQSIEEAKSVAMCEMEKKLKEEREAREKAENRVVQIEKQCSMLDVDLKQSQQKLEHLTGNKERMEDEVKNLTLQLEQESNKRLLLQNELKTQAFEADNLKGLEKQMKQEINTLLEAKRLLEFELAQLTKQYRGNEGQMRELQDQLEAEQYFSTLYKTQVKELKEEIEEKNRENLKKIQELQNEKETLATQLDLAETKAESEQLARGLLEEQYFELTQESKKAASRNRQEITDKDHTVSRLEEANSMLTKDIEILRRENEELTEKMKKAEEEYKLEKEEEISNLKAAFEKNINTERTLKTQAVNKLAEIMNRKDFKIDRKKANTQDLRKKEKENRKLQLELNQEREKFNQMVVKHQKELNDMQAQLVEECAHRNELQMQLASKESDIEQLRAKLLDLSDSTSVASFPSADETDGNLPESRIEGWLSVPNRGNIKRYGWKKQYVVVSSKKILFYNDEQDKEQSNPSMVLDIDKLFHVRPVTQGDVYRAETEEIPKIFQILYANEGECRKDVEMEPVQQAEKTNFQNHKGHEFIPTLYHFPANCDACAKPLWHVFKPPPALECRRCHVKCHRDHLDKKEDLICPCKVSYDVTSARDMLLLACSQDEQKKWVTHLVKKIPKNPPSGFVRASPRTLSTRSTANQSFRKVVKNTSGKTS
TIE2, sequence (Q02763 23-1124): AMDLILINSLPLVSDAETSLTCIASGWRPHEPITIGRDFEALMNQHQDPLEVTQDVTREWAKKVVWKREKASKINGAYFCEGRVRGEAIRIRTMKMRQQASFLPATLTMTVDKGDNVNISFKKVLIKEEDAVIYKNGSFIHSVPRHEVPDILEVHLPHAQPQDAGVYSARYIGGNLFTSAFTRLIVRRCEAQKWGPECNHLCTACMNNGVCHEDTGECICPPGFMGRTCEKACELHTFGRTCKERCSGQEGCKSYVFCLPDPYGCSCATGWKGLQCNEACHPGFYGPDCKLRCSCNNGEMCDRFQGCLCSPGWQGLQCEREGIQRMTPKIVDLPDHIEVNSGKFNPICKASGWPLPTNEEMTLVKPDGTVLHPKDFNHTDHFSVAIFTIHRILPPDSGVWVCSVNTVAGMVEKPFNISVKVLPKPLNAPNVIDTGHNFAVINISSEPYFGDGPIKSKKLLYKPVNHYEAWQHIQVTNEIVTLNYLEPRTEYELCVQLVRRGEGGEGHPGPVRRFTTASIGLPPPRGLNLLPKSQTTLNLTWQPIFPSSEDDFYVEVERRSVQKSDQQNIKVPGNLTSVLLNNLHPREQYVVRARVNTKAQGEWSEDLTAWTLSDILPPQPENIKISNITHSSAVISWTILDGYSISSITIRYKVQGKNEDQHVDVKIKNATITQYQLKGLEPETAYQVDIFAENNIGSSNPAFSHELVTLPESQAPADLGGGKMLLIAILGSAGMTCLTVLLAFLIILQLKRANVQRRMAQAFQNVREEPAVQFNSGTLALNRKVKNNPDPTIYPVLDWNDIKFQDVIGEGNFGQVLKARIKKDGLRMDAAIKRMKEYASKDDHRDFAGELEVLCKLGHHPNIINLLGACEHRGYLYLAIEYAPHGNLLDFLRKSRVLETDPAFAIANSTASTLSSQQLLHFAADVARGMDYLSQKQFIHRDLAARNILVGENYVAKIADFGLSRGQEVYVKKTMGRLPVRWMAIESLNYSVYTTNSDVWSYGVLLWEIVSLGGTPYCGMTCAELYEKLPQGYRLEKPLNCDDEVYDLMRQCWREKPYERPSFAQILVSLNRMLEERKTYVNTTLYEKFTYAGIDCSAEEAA
AurC, sequence (Q9UQB9 whole entry): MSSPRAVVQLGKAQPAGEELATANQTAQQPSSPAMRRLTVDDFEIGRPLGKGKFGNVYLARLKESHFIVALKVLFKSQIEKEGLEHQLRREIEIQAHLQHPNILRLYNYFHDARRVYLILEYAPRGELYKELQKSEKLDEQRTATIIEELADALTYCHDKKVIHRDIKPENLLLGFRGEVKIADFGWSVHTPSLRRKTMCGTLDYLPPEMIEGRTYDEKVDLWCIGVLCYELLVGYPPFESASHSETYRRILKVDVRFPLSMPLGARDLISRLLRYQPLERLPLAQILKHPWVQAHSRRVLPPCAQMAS
RSK3, sequence (Q15349 whole entry): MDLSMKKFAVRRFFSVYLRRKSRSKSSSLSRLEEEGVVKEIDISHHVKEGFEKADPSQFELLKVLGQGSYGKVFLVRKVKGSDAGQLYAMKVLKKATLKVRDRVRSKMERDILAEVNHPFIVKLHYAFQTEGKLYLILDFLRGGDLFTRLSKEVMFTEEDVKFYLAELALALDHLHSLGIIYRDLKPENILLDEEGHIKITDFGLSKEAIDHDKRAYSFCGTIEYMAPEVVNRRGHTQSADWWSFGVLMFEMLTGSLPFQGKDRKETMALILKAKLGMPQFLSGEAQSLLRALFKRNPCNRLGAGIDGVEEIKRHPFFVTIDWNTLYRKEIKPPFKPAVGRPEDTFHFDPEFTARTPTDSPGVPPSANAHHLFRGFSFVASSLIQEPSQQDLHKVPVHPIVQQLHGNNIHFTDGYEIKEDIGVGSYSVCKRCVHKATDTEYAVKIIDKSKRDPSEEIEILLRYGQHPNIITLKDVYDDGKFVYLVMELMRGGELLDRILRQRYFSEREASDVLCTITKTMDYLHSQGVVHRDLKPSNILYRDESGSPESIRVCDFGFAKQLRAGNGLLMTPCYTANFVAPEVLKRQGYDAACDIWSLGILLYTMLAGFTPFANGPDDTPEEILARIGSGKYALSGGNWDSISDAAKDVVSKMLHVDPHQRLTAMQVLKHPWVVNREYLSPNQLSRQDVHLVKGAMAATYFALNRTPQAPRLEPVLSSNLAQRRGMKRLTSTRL

## C=CC(=O)Nc1ccccc1Nc1ncc2c(n1)N(CCCN1CCN(C(=O)C=C)CC1)C(=O)N(c1cc(OC)cc(OC)c1)C2 [CXF-009]
TIE2
  inhibition at 1 µM: -12.8%
Erk2
  inhibition at 1 µM: 0.94%
FYNa
  inhibition at 1 µM: -9.44%
HIPK1
  inhibition at 1 µM: -5.67%
AurB
  inhibition at 1 µM: -2.47%
ZAP70
  inhibition at 1 µM: 11.8%
Huh7
  IC50: 727 nM
FGFR1
  IC50: 2580 nM
GLK
  inhibition at 1 µM: 2.68%
MER
  inhibition at 1 µM: 3.59%
EPHB4
  inhibition at 1 µM: -1.86%
TRKB
  inhibition at 1 µM: 42.1%
MET
  inhibition at 1 µM: 2.65%
DDR1
  inhibition at 1 µM: -3.41%
HIPK2
  inhibition at 1 µM: -5.04%
Erk5
  inhibition at 1 µM: 14%
HER2
  inhibition at 1 µM: 10.7%
HPK1
  inhibition at 1 µM: -2.36%
RET
  inhibition at 1 µM: 1.72%
CDK9/CycK
  inhibition at 1 µM: 0.11%
ROCK1
  inhibition at 1 µM: 5.09%
CK1ε
  inhibition at 1 µM: -4.6%
AurC
  inhibition at 1 µM: 2.77%
RSK3
  inhibition at 1 µM: 7.58%
EPHB1
  inhibition at 1 µM: -1.49%
